Assay results published in patent US7488740B2, “Substituted quinolin-4-ylamine analogues” (Neurogen Corporation, priority 2003, dated 2009).

Molecular target: T1, human capsaicin receptor (Homo sapiens, UniProt Q8NER1)
T1 construct: A cDNA encoding full length human capsaicin receptor recited in U.S. Pat. No. 6,482,611 was subcloned in the plasmid pBK-CMV; expressed in transfected cells
Test: Calcium mobilization assay (Example 6)
Assay type: cell-based
Conditions: concentration required to provide a 50% decrease in the fluorescence response of cells exposed to one IC50 of capsaicin
Method: Human embryonic kidney (HEK293) cells were transfected with the pBK-CMV expression construct encoding the full length human capsaicin receptor using standard methods. The transfected cells were selected for two weeks in media containing G418 (400 μg/ml) to obtain a pool of stably transfected cells. Independent clones were isolated from this pool by limiting dilution to obtain clonal stable cell lines for use in subsequent experiments.
Cells transfected with expression plasmids (as described in Example 4) and thereby expressing human capsaicin receptor are seeded and grown to 70-90% confluency in FALCON black-walled, clear-bottomed 96-well plates (#3904, BECTON-DICKINSON, Franklin Lakes, N.J.). The culture medium is emptied from the 96 well plates and FLUO-3 AM calcium sensitive dye (Molecular Probes, Eugene, Oreg.) is added to each well (dye solution: 1 mg FLUO-3 AM, 440 μL DMSO and 440 μl 20% pluronic acid in DMSO, diluted 1:250 in Krebs-Ringer HEPES (KRH) buffer (25 mM HEPES, 5 mM KCl, 0.96 mM NaH2PO4, 1 mM MgSO4, 2 mM CaCl2, 5 mM glucose, 1 mM probenecid, pH 7.4), 50 μl diluted solution per well). Plates are covered with aluminum foil and incubated at 37° C. for 1-2 hours in an environment containing 5% CO2. After the incubation, the dye is emptied from the plates, and the cells are washed once with KRH buffer, and, resuspended in KRH buffer.
Agonist (e.g., olvanil, capsaicin, or RTX)-induced calcium mobilization is monitored using either FLUOROSKAN ASCENT (Labsystems, Franklin, Mass.) or FLIPR (fluorometric imaging plate reader system, Molecular Devices, Sunnyvale, Calif.) instruments. Varying concentrations of the antagonists ruthenium red or capsazepine (RBI; Natick, Mass.) are added to cells concurrently with agonist (e.g., 25-50 nM capsaicin). For agonist-induced calcium responses, data obtained between 30 and 60 seconds after agonist application are used to generate the IC50 values. KALEIDAGRAPH software (Synergy Software, Reading, Pa.) is used to fit the data to the equation: y=a*(1/(1+(b/x)^c)) to determine the IC50 for the response. In this equation, y is the maximum fluorescence signal, x is the concentration of the agonist or antagonist, a is the Emax, b corresponds to the IC50 value and c is the Hill coefficient.
To measure the ability of a test compound to antagonize (inhibit) the response of cells expressing capsaicin receptors to capsaicin or other vanilloid agonist, the IC50 of capsaicin is first determined. An additional 20 μl of KRH buffer and 1 μl DMSO is added to each well of cells, prepared as described above. 100 μl capsaicin in KRH buffer is automatically transferred by the FLIPR instrument to each well. An 8-point concentration response curve, with final capsaicin concentrations of 1 nM to 3 μM, is used to determine capsaicin IC50.
Test compounds are dissolved in DMSO, diluted in 20 μl KRH buffer so that the final concentration of test compounds in the assay well is between 1 μM and 5 μM, and added to cells prepared as described above. The 96 well plates containing prepared cells and test compounds are incubated in the dark, at room temperature for 0.5 to 6 hours. It is important that the incubation not continue beyond 6 hours. Just prior to determining the fluorescence response, 100 μl capsaicin in KRH buffer at twice the IC50 concentration determined from the concentration response curve is automatically added by the FLIPR instrument to each well of the 96 well plate for a final sample volume of 200 μl and a final capsaicin concentration equal to the IC50. The final concentration of test compounds in the assay wells is between 1 μM and 5 μM. […] Antagonists of the capsaicin receptor decrease this response by at least about 20%, preferably by at least about 50%, and most preferably by at least 80% as compared to matched control. The concentration of antagonist required to provide a 50% decrease is the IC50 for the antagonist, and is preferably below 1 micromolar, 100 nanomolar, 10 nanomolar or 1 nanomolar. […]

T1 sequence (Q8NER1 whole entry): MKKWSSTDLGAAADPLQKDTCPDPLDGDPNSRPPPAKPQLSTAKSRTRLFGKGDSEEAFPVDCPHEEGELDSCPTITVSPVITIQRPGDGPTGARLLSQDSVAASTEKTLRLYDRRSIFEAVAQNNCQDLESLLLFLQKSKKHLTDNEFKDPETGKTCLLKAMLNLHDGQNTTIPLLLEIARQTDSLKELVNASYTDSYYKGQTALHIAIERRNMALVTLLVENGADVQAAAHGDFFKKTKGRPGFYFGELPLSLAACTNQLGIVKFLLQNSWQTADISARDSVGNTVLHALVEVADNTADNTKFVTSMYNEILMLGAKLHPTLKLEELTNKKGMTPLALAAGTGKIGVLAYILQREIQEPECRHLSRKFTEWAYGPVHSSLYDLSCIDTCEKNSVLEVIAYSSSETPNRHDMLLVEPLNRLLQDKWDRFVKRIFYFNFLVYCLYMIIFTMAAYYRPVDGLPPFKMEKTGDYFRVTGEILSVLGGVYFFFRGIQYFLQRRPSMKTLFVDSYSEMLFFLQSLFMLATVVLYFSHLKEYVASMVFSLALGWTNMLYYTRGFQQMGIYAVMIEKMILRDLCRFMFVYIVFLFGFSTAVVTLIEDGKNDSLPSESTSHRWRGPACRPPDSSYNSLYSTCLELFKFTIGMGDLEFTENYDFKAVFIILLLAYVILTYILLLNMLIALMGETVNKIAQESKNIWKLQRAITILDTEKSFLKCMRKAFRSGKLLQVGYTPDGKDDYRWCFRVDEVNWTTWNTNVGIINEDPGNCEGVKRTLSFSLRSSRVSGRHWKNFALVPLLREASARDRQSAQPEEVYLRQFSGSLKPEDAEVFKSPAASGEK

Structure (SMILES): CC(C)COCc1cc(Nc2ccc(C(F)(F)F)cc2)c2ccc(-c3ncccc3Cl)nc2n1 [Compound 52, 7-(3-chloropyridin-2-yl)-2-(isobutoxymethyl)-N-[4-(trifluoromethyl)phenyl]-1,8-naphthyridin-4-amine]
- IC50: ≤ 1 µM

Structure (SMILES): COCc1cc(Nc2ccc(C(C)(C)O)cc2)c2ccc(-c3ncccc3Cl)nc2n1 [Compound 53, 2-(4-{[7-(3-chloropyridin-2-yl)-2-(methoxymethyl)-1,8-naphthyridin-4-yl]amino}phenyl)propan-2-ol]
- IC50: ≤ 1 µM

Structure (SMILES): CC(C)COCc1cc(Nc2ccc(F)cc2)c2ccc(-c3ncccc3C(F)(F)F)nc2n1 [Compound 54, N-(4-fluorophenyl)-2-(isobutoxymethyl)-7-[3-(trifluoromethyl)pyridin-2-yl]-1,8-naphthyridin-4-amine]
- IC50: ≤ 1 µM

Structure (SMILES): FC(F)(F)c1ccc(Nc2cc(CN3CCC3)nc3nc(-c4ncccc4C(F)(F)F)ccc23)cc1 [Compound 55, 2-(azetidin-1-ylmethyl)-N-[4-(trifluoromethyl)phenyl]-7-[3-(trifluoromethyl)pyridin-2-yl]-1,8-naphthyridin-4-amine]
- IC50: ≤ 1 µM

Structure (SMILES): CC(=O)c1ccc(Nc2cc(COCC(C)C)nc3nc(-c4ncccc4C(F)(F)F)ccc23)cc1 [Compound 56, 1-[4-({2-(isobutoxymethyl)-7-[3-(trifluoromethyl)pyridin-2-yl]-1,8-naphthyridin-4-yl}amino)phenyl]ethanone]
- IC50: ≤ 1 µM

Structure (SMILES): CC(C)COCc1cc(Nc2ccc(C(C)(C)O)cc2)c2ccc(-c3ncccc3C(F)(F)F)nc2n1 [Compound 57, 2-[4-({2-(isobutoxymethyl)-7-[3-(trifluoromethyl)pyridin-2-yl]-1,8-naphthyridin-4-yl}amino)phenyl]propan-2-ol]
- IC50: ≤ 1 µM

Structure (SMILES): CC(C)NCc1cc(Nc2ccc(C(F)(F)F)cc2)c2ccc(-c3ncccc3C(F)(F)F)nc2n1 [Compound 58, 2-[(isopropylamino)methyl]-N-[4-(trifluoromethyl)phenyl]-7-[3-(trifluoromethyl)pyridin-2-yl]-1,8-naphthyridin-4-amine]
- IC50: ≤ 1 µM

Structure (SMILES): CC(C)CNCc1cc(Nc2ccc(C(F)(F)F)cc2)c2ccc(-c3ncccc3C(F)(F)F)nc2n1 [Compound 59, 2-[(isobutylamino)methyl]-N-[4-(trifluoromethyl)phenyl]-7-[3-(trifluoromethyl)pyridin-2-yl]-1,8-naphthyridin-4-amine]
- IC50: ≤ 1 µM

Structure (SMILES): CC(C)CN(C)Cc1cc(Nc2ccc(C(F)(F)F)cc2)c2ccc(-c3ncccc3C(F)(F)F)nc2n1 [Compound 60, 2-{[isobutyl(methyl)amino]methyl}-N-[4-(trifluoromethyl)phenyl]-7-[3-(trifluoromethyl)pyridin-2-yl]-1,8-naphthyridin-4-amine]
- IC50: ≤ 1 µM

Structure (SMILES): CC(C)COCc1cc(Nc2ccc(Br)cn2)c2ccc(-c3ncccc3C(F)(F)F)nc2n1 [Compound 61, N-(5-bromopyridin-2-yl)-2-(isobutoxymethyl)-7-[3-(trifluoromethyl)pyridin-2-yl]-1,8-naphthyridin-4-amine]
- IC50: ≤ 1 µM

Structure (SMILES): COCc1cc(Nc2ccc(C(F)(F)F)cc2)c2ccc(-c3ncccc3F)nc2n1 [Compound 62, 7-(3-fluoropyridin-2-yl)-2-(methoxymethyl)-N-[4-(trifluoromethyl)phenyl]-1,8-naphthyridin-4-amine]
- IC50: ≤ 1 µM

Structure (SMILES): CC(=O)c1ccc(Nc2cc(COCC(C)C)nc3nc(-c4ncccc4Cl)ccc23)cc1 [Compound 63, 1-(4-{[7-(3-chloropyridin-2-yl)-2-(isobutoxymethyl)-1,8-naphthyridin-4-yl]amino}phenyl)ethanone]
- IC50: ≤ 1 µM

Structure (SMILES): CC(C)COCc1cc(Nc2ccc(C(C)(C)O)cc2)c2ccc(-c3ncccc3Cl)nc2n1 [Compound 64, 2-(4-{[7-(3-chloropyridin-2-yl)-2-(isobutoxymethyl)-1,8-naphthyridin-4-yl]amino}phenyl)propan-2-ol]
- IC50: ≤ 1 µM

Structure (SMILES): CC(C)COCc1cc(Nc2ccc(S(C)(=O)=O)cc2)c2ccc(-c3ncccc3C(F)(F)F)nc2n1 [Compound 65, 2-(isobutoxymethyl)-N-[4-(methylsulfonyl)phenyl]-7-[3-(trifluoromethyl)pyridin-2-yl]-1,8-naphthyridin-4-amine]
- IC50: ≤ 1 µM

Structure (SMILES): CC(O)COCc1cc(Nc2ccc(C(F)(F)F)cc2)c2ccc(-c3ncccc3C(F)(F)F)nc2n1 (stereo not drawn) [Compound 66, 1-({4-{[4-(trifluoromethyl)phenyl]amino}-7-[3-(trifluoromethyl)pyridin-2-yl]-1,8-naphthyridin-2-yl}methoxy)propan-2-ol]
- IC50: ≤ 1 µM

Structure (SMILES): CC(=O)COCc1cc(Nc2ccc(C(F)(F)F)cc2)c2ccc(-c3ncccc3C(F)(F)F)nc2n1 [Compound 67, 1-({4-{[4-(trifluoromethyl)phenyl]amino}-7-[3-(trifluoromethyl)pyridin-2-yl]-1,8-naphthyridin-2-yl}methoxy)acetone]
- IC50: ≤ 1 µM

Structure (SMILES): CC(C)COCc1cc(Nc2ccc(S(=O)(=O)N(C)C)cc2)c2ccc(-c3ncccc3C(F)(F)F)nc2n1 [Compound 68, 4-({2-(isobutoxymethyl)-7-[3-(trifluoromethyl)pyridin-2-yl]-1,8-naphthyridin-4-yl]amino)-N,N-dimethylbenzenesulfonamide]
- IC50: ≤ 1 µM

Structure (SMILES): CN(Cc1cc(Nc2ccc(C(F)(F)F)cc2)c2ccc(-c3ncccc3C(F)(F)F)nc2n1)S(C)(=O)=O [Compound 70, N-methyl-N-({4-{[4-(trifluoromethyl)phenyl]amino}-7-[3-(trifluoromethyl)pyridin-2-yl]-1,8-naphthyridin-2-yl}methyl)methanesulfonamide]
- IC50: ≤ 1 µM

Structure (SMILES): CCS(=O)(=O)N(C)Cc1cc(Nc2ccc(C(F)(F)F)cc2)c2ccc(-c3ncccc3C(F)(F)F)nc2n1 [Compound 71, N-methyl-N-({4-{[4-(trifluoromethyl)phenyl]amino}-7-[3-(trifluoromethyl)pyridin-2-yl]-1,8-naphthyridin-2-yl}methyl)ethanesulfonamide]
- IC50: ≤ 1 µM

Structure (SMILES): CC(C)COCc1cc(Nc2ccc(S(=O)(=O)C(C)C)cc2)c2ccc(-c3ncccc3C(F)(F)F)nc2n1 [Compound 72, 2-(isobutoxymethyl)-N-[4-(isopropylsulfonyl)phenyl]-7-[3-(trifluoromethyl)pyridin-2-yl]-1,8-naphthyridin-4-amine]
- IC50: ≤ 1 µM

Structure (SMILES): CCCS(=O)(=O)c1ccc(Nc2cc(COCC(C)C)nc3nc(-c4ncccc4C(F)(F)F)ccc23)cc1 [Compound 73, 2-(isobutoxymethyl)-N-[4-(propylsulfonyl)phenyl]-7-[3-(trifluoromethyl)pyridin-2-yl]-1,8-naphthyridin-4-amine]
- IC50: ≤ 1 µM

Structure (SMILES): CC(C)COCc1cc(Nc2ccc(S(=O)(=O)C(F)(F)F)cc2)c2ccc(-c3ncccc3C(F)(F)F)nc2n1 [Compound 74, 2-(isobutoxymethyl)-7-[3-(trifluoromethyl)pyridin-2-yl]-N-{4-[(trifluoromethyl)sulfonyl]phenyl}-1,8-naphthyridin-4-amine]
- IC50: ≤ 1 µM

Structure (SMILES): CC(C)C(=O)N(C)Cc1cc(Nc2ccc(C(F)(F)F)cc2)c2ccc(-c3ncccc3C(F)(F)F)nc2n1 [Compound 75, N,2-dimethyl-N-({4-{[4-(trifluoromethyl)phenyl]amino}-7-[3-(trifluoromethyl)pyridin-2-yl]-1,8-naphthyridin-2-yl}methyl)propanamide]
- IC50: ≤ 1 µM

Structure (SMILES): CN(CC(=O)O)Cc1cc(Nc2ccc(C(F)(F)F)cc2)c2ccc(-c3ncccc3C(F)(F)F)nc2n1 [Compound 76, N-methyl-N-({4-{[4-(trifluoromethyl)phenyl]amino}-7-[3-(trifluoromethyl)pyridin-2-yl]-1,8-naphthyridin-2-yl}methyl)glycine]
- IC50: ≤ 1 µM
